The target of assay [1] is T1, NUAK family SNF1-like kinase 1 (Homo sapiens, UniProt O60285).
T1 sequence (O60285 whole entry): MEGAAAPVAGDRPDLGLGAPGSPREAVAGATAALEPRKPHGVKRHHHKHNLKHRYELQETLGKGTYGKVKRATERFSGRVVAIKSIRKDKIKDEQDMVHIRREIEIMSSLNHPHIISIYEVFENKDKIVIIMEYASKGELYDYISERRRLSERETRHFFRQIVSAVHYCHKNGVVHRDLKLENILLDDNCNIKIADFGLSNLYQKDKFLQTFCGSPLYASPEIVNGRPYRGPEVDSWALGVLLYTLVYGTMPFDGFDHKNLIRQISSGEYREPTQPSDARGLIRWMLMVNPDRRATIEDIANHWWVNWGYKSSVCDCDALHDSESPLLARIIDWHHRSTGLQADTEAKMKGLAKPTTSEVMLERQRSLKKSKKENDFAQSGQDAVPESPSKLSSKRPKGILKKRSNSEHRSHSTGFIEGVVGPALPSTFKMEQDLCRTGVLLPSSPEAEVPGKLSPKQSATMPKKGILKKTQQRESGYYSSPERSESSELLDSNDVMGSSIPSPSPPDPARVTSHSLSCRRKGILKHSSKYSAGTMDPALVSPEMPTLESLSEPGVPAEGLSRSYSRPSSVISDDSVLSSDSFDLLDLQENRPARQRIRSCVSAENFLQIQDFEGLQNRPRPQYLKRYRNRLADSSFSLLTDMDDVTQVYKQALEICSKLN
Kind of assay: Inhibition of NUAK1 (unknown origin).

For assay [2], the target named is T1, NUAK family SNF1-like kinase 1. The assay can be described thus: Inhibition of N-terminal GST-tagged wild type human NUAK1 expressed in Escherichia coli DH5alpha incubated for 30 mins in presence of gamma-[32P]ATP by cerenkov counting analysis.
Assay [3] is described as follows: Inhibition of N-terminal GST-tagged human NUAK1 A195T mutant expressed in Escherichia coli DH5alpha incubated for 30 mins in presence of gamma-[32P]ATP by cerenkov counting analysis.
In assay [4] the target is T2, NUAK family SNF1-like kinase 1 (Homo sapiens) (UniProt O60285).
T2 sequence (whole entry): T1 sequence (O60285 whole entry)
Kind of assay: Inhibition of NUAK1 (unknown origin) at 1 uM relative to control.

The target of assay [5] is T2, NUAK family SNF1-like kinase 1 (Homo sapiens). The assay can be described thus: Inhibition of NUAK1 (unknown origin) at 0.01 uM relative to control.
The target is the same in assay [6]. Kind of assay: Inhibition of NUAK1 (unknown origin) at 0.10 uM relative to control. Conditions: dose 0.1 µM.
Assay [7] addresses T1, NUAK family SNF1-like kinase 1. Kind of assay: Inhibition of NUAK1 in HEK293 cells assessed as effect on MYPT1 phosphorylation at Ser445 incubated for 3 mins by immunoblotting analysis. The class given is cell-based.
The target in the next assay is T3, Aurora kinase C (Homo sapiens, UniProt Q9UQB9).
T3 sequence (Q9UQB9 whole entry): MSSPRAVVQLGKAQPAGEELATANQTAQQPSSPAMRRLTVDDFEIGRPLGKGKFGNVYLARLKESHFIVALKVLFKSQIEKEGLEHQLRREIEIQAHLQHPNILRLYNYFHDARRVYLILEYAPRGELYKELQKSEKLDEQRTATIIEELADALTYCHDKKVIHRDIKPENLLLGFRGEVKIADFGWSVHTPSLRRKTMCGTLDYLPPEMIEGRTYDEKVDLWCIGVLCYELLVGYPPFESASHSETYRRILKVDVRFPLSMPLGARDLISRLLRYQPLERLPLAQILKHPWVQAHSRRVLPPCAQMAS
Kind of assay: Inhibition of Aurora C (unknown origin).

The target of another assay is Aurora kinase B (Homo sapiens, UniProt Q96GD4). The assay can be described thus: Inhibition of Aurora B (unknown origin).
For assay [8], the target named is T4, NUAK family SNF1-like kinase 2 (Homo sapiens, UniProt Q9H093).
T4 sequence (Q9H093 whole entry): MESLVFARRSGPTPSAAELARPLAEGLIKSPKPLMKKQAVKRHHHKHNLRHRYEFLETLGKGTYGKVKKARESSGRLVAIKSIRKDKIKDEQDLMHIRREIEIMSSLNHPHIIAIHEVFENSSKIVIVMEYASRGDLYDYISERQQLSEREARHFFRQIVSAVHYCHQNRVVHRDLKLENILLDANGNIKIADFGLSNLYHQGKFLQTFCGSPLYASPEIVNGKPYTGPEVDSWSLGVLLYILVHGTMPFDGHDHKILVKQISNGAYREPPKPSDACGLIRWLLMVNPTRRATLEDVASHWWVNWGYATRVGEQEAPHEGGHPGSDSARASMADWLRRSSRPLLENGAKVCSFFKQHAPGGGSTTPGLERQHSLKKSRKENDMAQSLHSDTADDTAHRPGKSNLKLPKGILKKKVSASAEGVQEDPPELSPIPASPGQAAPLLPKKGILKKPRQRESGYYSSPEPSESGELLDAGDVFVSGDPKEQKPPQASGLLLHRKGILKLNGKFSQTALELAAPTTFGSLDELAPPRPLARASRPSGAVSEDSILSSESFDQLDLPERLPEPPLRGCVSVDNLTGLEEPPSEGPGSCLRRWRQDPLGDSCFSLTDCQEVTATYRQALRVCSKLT
The assay can be described thus: Inhibition of NUAK2 (unknown origin).

In assay [9] the target is Cyclin-dependent kinase 4 (Homo sapiens) (UniProt P11802). Kind of assay: Inhibition of CDK4 (unknown origin).
Assay [10] deals with Proto-oncogene tyrosine-protein kinase receptor Ret (Homo sapiens, UniProt P07949). Kind of assay: Inhibition of RET (unknown origin).
Assay [11] concerns the target T5, Insulin-like growth factor 1 receptor (Homo sapiens, UniProt P08069). The assay can be described thus: Inhibition of human IGF1R expressed in mouse IGF1R knockout MEF cells. The class given is cell-based.
For assay [12], the target named is T6, Insulin receptor (Homo sapiens, UniProt P06213). The assay can be described thus: Inhibition of human InsR expressed in mouse IGF1R knockout MEF cells. Type of assay: cell-based.
Assay [13] deals with T5, Insulin-like growth factor 1 receptor. Kind of assay: Binding affinity to human IGF1R expressed in mouse IGF1R knockout MEF cells assessed as dissociation constant. Type of assay: cell-based.
The target in assay [14] is T6, Insulin receptor. Kind of assay: Binding affinity to human InsR expressed in mouse IGF1R knockout MEF cells assessed as dissociation constant. The class given is cell-based.

Among the data in ChEMBL document CHEMBL5096150, “Development and Therapeutic Potential of NUAKs Inhibitors” (J Med Chem, 2021) are IC50, inhibition and Kd values, retold here.

For orientation: IC50 means the concentration at which inhibition is half-maximal. The term inhibition denotes the change of the read-out against control, counted positive when it falls. High values mean a strong effect, low ones a weak effect. As a reminder, the Kd is the free concentration of one partner at which half of the binding sites on the other are occupied at equilibrium, for simple one-to-one binding.

Each structure is given as a SMILES string.

T6 sequence (P06213 28-758 limits assumed): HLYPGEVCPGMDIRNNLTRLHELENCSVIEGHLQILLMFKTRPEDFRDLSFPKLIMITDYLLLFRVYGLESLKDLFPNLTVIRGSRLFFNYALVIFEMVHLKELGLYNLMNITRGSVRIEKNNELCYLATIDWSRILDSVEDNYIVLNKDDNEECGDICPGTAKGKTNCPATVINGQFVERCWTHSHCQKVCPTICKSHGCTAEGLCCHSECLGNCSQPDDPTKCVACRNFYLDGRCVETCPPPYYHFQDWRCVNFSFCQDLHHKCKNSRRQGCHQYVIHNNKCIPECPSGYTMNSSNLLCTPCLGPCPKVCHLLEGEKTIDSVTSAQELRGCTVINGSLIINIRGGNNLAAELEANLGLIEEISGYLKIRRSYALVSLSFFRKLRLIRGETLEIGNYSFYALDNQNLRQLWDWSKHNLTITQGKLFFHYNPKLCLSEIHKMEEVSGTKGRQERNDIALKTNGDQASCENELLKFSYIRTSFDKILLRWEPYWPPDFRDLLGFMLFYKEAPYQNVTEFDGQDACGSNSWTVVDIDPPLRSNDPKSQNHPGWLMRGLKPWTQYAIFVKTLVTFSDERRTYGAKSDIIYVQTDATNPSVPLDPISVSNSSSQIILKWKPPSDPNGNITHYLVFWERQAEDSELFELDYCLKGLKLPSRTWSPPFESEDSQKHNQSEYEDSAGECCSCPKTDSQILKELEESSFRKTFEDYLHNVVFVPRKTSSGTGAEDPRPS
T6 sequence (P06213 763-1382 limits assumed): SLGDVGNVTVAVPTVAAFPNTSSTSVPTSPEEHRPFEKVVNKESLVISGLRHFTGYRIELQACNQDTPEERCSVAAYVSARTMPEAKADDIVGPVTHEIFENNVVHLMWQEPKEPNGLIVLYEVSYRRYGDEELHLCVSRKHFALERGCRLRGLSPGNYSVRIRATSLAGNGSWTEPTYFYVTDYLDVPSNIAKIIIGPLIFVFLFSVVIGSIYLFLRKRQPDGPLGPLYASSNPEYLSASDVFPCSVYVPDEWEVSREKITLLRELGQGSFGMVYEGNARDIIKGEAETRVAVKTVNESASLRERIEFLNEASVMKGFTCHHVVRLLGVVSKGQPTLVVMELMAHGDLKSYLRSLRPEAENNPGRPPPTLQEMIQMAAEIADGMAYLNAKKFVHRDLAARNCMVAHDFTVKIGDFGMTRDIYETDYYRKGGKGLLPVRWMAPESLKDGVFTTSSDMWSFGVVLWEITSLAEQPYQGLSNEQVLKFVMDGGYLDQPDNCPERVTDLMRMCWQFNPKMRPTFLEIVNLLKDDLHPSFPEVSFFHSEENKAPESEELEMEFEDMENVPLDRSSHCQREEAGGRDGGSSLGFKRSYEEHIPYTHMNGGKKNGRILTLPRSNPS
T5 sequence (P08069 31-736 limits assumed): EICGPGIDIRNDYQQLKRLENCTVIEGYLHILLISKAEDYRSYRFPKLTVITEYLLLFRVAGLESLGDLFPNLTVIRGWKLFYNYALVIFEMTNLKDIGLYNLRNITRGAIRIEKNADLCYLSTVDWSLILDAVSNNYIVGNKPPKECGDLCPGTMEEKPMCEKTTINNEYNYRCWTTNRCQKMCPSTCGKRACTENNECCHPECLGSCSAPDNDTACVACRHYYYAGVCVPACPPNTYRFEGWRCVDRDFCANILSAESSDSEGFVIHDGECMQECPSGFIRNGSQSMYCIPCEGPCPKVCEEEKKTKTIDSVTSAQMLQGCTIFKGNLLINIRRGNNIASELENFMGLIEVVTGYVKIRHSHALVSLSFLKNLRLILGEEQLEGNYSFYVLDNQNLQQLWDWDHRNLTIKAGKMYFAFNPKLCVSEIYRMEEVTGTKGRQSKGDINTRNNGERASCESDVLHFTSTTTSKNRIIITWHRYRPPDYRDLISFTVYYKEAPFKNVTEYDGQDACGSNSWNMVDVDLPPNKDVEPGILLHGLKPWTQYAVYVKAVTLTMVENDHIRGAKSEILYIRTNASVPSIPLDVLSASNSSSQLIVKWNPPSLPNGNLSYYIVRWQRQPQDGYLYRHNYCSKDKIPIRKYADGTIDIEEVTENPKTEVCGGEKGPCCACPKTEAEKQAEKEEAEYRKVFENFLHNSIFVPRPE
T5 sequence (P08069 741-1367 limits assumed): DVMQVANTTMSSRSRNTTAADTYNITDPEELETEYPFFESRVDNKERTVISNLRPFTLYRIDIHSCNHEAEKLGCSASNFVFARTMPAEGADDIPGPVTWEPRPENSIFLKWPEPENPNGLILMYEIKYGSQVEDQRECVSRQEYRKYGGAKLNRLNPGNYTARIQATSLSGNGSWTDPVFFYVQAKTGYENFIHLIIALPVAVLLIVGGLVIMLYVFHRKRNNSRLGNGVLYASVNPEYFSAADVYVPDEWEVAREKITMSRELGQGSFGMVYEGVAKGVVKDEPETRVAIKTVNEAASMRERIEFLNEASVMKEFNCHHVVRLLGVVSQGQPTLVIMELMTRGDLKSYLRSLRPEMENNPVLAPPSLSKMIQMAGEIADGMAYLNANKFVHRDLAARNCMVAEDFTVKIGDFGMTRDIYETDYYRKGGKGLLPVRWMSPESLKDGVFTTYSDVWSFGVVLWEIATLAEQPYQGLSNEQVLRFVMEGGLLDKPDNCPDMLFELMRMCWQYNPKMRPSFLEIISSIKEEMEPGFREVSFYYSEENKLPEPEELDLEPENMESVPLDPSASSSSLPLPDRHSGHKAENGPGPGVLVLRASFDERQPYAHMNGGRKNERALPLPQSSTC
Sequence of Cyclin-dependent kinase 4 (Homo sapiens) (P11802 whole entry): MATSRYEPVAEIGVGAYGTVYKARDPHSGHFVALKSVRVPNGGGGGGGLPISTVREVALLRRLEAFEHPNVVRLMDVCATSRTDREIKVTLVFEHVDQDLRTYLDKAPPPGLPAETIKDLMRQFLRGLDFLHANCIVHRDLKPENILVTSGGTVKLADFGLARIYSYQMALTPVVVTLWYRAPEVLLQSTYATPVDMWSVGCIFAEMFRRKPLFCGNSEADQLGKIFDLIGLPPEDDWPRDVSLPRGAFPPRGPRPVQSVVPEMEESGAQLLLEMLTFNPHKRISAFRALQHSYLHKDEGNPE
Sequence of Aurora kinase B (Q96GD4 whole entry): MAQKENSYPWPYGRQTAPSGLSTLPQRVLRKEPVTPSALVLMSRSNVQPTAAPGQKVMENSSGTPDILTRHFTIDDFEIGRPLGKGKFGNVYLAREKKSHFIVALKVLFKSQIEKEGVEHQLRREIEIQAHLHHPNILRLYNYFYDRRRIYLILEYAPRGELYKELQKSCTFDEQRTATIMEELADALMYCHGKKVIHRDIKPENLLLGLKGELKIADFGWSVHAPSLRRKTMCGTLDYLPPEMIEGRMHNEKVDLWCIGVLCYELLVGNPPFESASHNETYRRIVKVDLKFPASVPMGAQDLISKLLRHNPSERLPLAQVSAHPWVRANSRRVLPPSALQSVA
Sequence of Proto-oncogene tyrosine-protein kinase receptor Ret (P07949 whole entry): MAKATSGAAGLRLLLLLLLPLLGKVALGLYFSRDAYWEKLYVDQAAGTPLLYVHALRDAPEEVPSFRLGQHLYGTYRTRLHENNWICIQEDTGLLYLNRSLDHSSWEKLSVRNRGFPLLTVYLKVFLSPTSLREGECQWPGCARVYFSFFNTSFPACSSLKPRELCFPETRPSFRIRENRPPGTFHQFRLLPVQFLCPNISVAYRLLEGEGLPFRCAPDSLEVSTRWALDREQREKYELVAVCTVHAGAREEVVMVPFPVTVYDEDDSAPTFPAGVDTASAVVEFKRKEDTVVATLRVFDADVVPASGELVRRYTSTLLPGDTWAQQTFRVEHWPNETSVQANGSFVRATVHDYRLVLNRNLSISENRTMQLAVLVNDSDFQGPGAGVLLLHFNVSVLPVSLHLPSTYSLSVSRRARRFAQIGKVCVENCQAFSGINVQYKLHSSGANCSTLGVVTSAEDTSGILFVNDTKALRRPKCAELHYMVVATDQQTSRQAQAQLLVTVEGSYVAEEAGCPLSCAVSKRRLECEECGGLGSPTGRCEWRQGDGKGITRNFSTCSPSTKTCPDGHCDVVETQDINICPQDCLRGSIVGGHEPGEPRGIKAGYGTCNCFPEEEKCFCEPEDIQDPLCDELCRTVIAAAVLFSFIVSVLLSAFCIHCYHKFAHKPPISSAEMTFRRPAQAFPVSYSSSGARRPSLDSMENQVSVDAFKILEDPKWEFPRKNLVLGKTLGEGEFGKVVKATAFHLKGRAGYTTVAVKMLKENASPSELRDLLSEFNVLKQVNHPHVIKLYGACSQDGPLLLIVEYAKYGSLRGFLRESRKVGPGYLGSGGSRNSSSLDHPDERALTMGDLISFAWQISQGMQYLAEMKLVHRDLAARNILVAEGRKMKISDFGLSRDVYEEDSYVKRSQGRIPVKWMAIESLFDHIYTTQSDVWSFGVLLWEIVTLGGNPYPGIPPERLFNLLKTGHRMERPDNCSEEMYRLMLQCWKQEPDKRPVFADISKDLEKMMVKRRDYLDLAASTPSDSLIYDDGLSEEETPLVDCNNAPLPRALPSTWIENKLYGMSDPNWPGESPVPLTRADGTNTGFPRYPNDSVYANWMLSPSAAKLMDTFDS

In turn, `Fc1ccc(Cn2cnc3cc(Cl)c(Nc4cc(C5CC5)[nH]n4)nc32)cc1` had a 50% inhibitory concentration (IC50) in [1] of 34.9 nM.
In the case of `Cc1ccc2c(c1)C(=O)N(C)c1cnc(Nc3ccc4c(c3)NC(=O)CC4)nc1N2C`, the IC50 in assay [2] came to 15 nM; in assay [3], 2000 nM.
For `C=CC(=O)Nc1cccc(Oc2nc(Nc3ccc(N4CCN(C)CC4)cc3OC)ncc2Cl)c1`, the 50% inhibitory concentration (IC50) in [2] came out at 25 nM.
Same read-out and setting: then `C=CC(=O)Nc1cccc(Oc2nc(Nc3ccc(N4CCN(C)CC4)cc3)nc3[nH]cnc23)c1`, with 33 nM; and `Cc1ccc2c(c1)C(=O)N(C)c1cnc(Nc3cnn(C4CCNCC4)c3)nc1N2C`, with 7 nM.
As to `Cc1cc(Nc2nc(NC(C)c3ccc(F)cc3)c(C#N)cc2F)n[nH]1` (stereo not drawn), the inhibition came to 3% in assay [4], 35% in assay [5] and 6% in assay [6].
On to `CN1C(=O)c2cc3ccccc3cc2N(C)c2nc(Nc3cnn(C4CCNCC4)c3)ncc21`, for which the 50% inhibitory concentration (IC50) is 10 µM in assay [7], 120 nM on Aurora kinase C and 54 nM against Aurora kinase B.
Turning to `CCC(=O)Nc1cccc(Oc2nc(Nc3ccc(N4CCN(C)CC4)cc3OC)ncc2Cl)c1`, the half-inhibitory concentration (IC50) in [2] is 1.5 nM.
For the compound `COc1cccc(OCCCN)c1-c1cc(Nc2cnc(C#N)cn2)n[nH]1` [PREXASERTIB], the concentration for half-maximal inhibition (IC50) in assay [1] stood at 64 nM.
Still for that read-out and setting: then `C[C@@H](O)[C@@H](C)Oc1nc(Nc2ccc([S@](=N)(=O)C3CC3)cc2)ncc1C(F)(F)F` [RONICICLIB], with under 10 nM.
Turning to `Cc1nc(Nc2cnn(C3CCNCC3)c2)nc2c1N(C)C(=O)c1ccccc1N2C`, the IC50 in assay [2] was found to be 17 nM.
Turning to `Cc1cc(Nc2ncc3c(n2)N(C)c2ccccc2C(=O)N3C)ccc1C(=O)N1CCN(C)CC1`, in assay [2], the IC50 is 6 nM.
The compound `O=C(NCCCNc1nc(Nc2cccc(CN3CCOCC3)c2)ncc1C1CC1)C1CCC1` yielded an IC50 in assay [8] of 2600 nM.
The compound `CCCC(=O)Nc1cccc(Oc2nc(Nc3ccc(N4CCN(C)CC4)cc3OC)ncc2I)c1` displayed a concentration for half-maximal inhibition (IC50) in [8] of 126 nM.
`CC(C)(C)NS(=O)(=O)c1cccc(Nc2nc(Nc3cnn(C4CCNCC4)c3)ncc2Cl)c1`: in [2], the 50% inhibitory concentration (IC50) worked out at 67 nM.
In [1], `O=C(NCCCNc1nc(Nc2cccc(NC(=O)N3CCCC3)c2)ncc1I)c1cccs1` [BX-795] returned an IC50 of 5 nM.
For the compound `CN1CCN(c2ccc(Nc3ncc4cc(C#N)c(=O)n(C5CCCC5)c4n3)cc2)CC1` [NARAZACICLIB], the values for the IC50 in assay [9] and in assay [10] were 3.9 nM and 9.2 nM, respectively.
`COCCN1CCN(CCn2ccc(Nc3ncc4c(n3)C(C)Cc3nn(C)c(-c5ccccc5)c3-4)n2)CC1` (stereo not drawn): the IC50 in assay [1] came out at 411 nM; in assay [11], 1 nM; on Insulin receptor [12], 1 nM. Moreover, the Kd in assay [13] is 9 nM; on Insulin receptor [14] it was 12 nM.
